Experimental findings from ChEMBL document CHEMBL2375281, “Exploring the UDP pocket of LpxC through amino acid analogs” (Bioorg Med Chem Lett, 2013) are described below.

The series can be described thus: Lipophilicity, log D of the compound. The following applies: octanol/water. In kind it is physicochemical.
One may read the logD as the decadic logarithm of the distribution of all forms, ionised or not, between an organic phase and buffer at a given pH. A lower logD goes with lower lipophilicity. As for `O=C(N[C@@H](C(=O)NO)c1ccccc1)c1ccc(C#Cc2ccccc2)cc1`, the logD was above 3. The same measure for `NC(=O)C[C@H](NC(=O)c1ccc(C#Cc2ccccc2)cc1)C(=O)NO`: 1; for `O=C(C[C@H](NC(=O)c1ccc(C#Cc2ccccc2)cc1)C(=O)NO)NCCCO`: 2; for `COCCNC(=O)C[C@H](NC(=O)c1ccc(C#Cc2ccccc2)cc1)C(=O)NO`: 2. In turn, `C#CCNC(=O)C[C@H](NC(=O)c1ccc(C#Cc2ccccc2)cc1)C(=O)NO` had a logD of 3. The figure for `O=C(NC1(C(=O)NO)CCC1)c1ccc(C#Cc2ccccc2)cc1` is above 3; for `O=C(NC1(C(=O)NO)CCCCC1)c1ccc(C#Cc2ccccc2)cc1` it is above 3. The same measure for `O=C(NC1(C(=O)NO)CCOCC1)c1ccc(C#Cc2ccccc2)cc1`: above 4; for `O=C(NC1(C(=O)NO)CCSCC1)c1ccc(C#Cc2ccccc2)cc1`: above 3.

`O=C(NC1(C(=O)NO)CCS(=O)(=O)CC1)c1ccc(C#Cc2ccccc2)cc1`: the logD came out at 3. Compound `O=C(NC1(C(=O)NO)CCNCC1)c1ccc(C#Cc2ccccc2)cc1` registered a logD of 3.

Compound `O=C(NC1(C(=O)NO)CCN(Cc2ccccc2)CC1)c1ccc(C#Cc2ccccc2)cc1` came in with a logD above 3. `C[C@H](O)[C@H](NC(=O)c1ccc(C#Cc2ccccc2)cc1)C(=O)NO` had a logD of 2. Regarding `O=C(CNC(=O)c1ccc(C#Cc2ccccc2)cc1)NO`, the pH-dependent lipophilicity (logD) came to 3. The figure for `CC(C)(NC(=O)c1ccc(C#Cc2ccccc2)cc1)C(=O)NO` is 3; for `O=C(N[C@@H](CO)C(=O)NO)c1ccc(C#Cc2ccccc2)cc1` it is 2; for `O=C(N[C@H](CO)C(=O)NO)c1ccc(C#Cc2ccccc2)cc1` it is 2. In the case of `NC[C@H](NC(=O)c1ccc(C#Cc2ccccc2)cc1)C(=O)NO`, the pH-dependent lipophilicity (logD) was determined as 2. Consider `CSC[C@H](NC(=O)c1ccc(C#Cc2ccccc2)cc1)C(=O)NO`, for which the logD was 3. The same measure for `CS(=O)(=O)C[C@H](NC(=O)c1ccc(C#Cc2ccccc2)cc1)C(=O)NO`: 2; for `O=C(N[C@H](C(=O)NO)c1ccccc1)c1ccc(C#Cc2ccccc2)cc1`: 3; for `CC(NC(=O)c1ccc(C#Cc2ccccc2)cc1)C(=O)NO` (racemic): above 3.

Regarding `CC(C)C(NC(=O)c1ccc(C#Cc2ccccc2)cc1)C(=O)NO` (racemic), the logD was above 3.
